Positions of bridges follow the written chain, without caps; N, C: chain ends. Non-standard residues stand in square brackets, D forms with d. Residues, ends and D or L forms follow the SMILES beside them. dCha = N[C@H](CC1CCCCC1)C(=O)O
Tested on: MRSA ATCC 33591
Test: Resistance study on agar
Assay type: cell-based, Staphylococcus aureus
Conditions: 10× MIC on agar, 24 h, 37 °C
Experimental: MICs were performed as previously reported 4. For MIC testing all peptides were dissolved in DMSO.
Bacterial cultures were grown overnight on Mueller-Hinton Agar (MHA) plates and adjusted to a final inoculum of 10^5 – 10^6 CFU/mL. 100 µl of ino culum in Meuller -Hinton broth (MHB) was mixed with equal volume of peptides (dissolved in MHB) at 2x their concentration in a 96 well plate . […]
MIC values were determined in the media contain ing polysorbate 80 (0.002%, v/v) to prevent non -specific adsorption of the peptides to plastic surfaces. The final peptides concentrations ranged from 0.0625 – 32 µg/mL. The 96 well plates were then incubated at 37 °C for 24 h. All the experiments were performed in two independent duplicates and the MIC was determined as the lowest concentration in which no visible growth was observed. […]
VIII. Time dependent killing of bacteria and resistance studies by analogue 12 […]
Resistance evaluations were conducted following previously described protocols 5. […]

SMILES: CC(C)C[C@@H]1NC(=O)[C@H](C)NC(=O)[C@H](NC(=O)[C@H](CO)NC(=O)[C@@H](CCCCN)NC(=O)[C@@H](CC2CCCCC2)NC(=O)[C@@H](N)Cc2ccccc2)[C@H](C)OC(=O)[C@H](CC(C)C)NC1=O [analogue 12, Leu2Cha–Novltex] (H-F[dCha][dK]S[dT]ALL; ester 5-C)
- emergence of resistant mutants: No resistant MRSA ATCC 33591 mutants emerged

Source: publication PMC12481569, “Novltex: A New Class of Antibiotics with Potent Activity against Multidrug-Resistant Bacterial Pathogens–Design, Synthesis, and Biological Evaluation” (Journal of Medicinal Chemistry, 2025)
